Results published in ChEMBL document CHEMBL2417484, “Mitotic kinesin Eg5 overcomes inhibition to the phase I/II clinical candidate SB743921 by an allosteric resistance mechanism” (J Med Chem, 2013).
Changes are numbered by the printed parent chain.

How the values were obtained:
[1] = tested on: T1, Kinesin-like protein KIF11 (Homo sapiens), P52732 [D130V,A133D]; test: Inhibition of microtubule-stimulated ATPase activity of human Eg5 D130V/A133D mutant expressed in Escherichia coli BL21 by pyruvate kinase/lactate dehydrogenase-linked assay relative to control
T1 sequence (whole entry): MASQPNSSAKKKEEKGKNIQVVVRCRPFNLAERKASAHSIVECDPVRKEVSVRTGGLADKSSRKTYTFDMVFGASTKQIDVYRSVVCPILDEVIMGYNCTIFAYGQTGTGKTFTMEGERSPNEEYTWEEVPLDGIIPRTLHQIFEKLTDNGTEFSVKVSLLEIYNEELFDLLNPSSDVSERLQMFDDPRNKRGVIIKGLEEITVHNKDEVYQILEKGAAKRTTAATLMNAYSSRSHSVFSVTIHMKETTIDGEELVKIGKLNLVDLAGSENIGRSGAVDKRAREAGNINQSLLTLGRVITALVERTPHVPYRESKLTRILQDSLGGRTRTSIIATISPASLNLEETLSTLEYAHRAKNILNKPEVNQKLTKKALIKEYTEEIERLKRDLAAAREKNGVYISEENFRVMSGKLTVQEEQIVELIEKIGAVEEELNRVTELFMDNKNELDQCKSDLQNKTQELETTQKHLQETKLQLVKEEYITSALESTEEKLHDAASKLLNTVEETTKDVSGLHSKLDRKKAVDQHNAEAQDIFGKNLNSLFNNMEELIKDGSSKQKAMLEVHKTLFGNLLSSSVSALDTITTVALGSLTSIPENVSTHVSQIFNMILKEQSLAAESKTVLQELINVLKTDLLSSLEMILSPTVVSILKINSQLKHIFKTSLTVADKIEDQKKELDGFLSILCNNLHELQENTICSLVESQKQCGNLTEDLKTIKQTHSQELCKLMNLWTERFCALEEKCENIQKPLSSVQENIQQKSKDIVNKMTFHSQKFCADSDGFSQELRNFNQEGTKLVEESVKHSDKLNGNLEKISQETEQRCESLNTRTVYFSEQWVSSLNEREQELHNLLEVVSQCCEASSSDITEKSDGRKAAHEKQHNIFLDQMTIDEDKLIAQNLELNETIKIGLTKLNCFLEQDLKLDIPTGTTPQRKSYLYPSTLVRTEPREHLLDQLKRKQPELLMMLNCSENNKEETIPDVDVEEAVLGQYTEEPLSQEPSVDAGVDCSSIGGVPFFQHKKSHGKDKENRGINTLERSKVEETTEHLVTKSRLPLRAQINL

[2] = tested on: T2, Kinesin-like protein KIF11 (Homo sapiens), P52732 [A133D]; test: Inhibition of microtubule-stimulated ATPase activity of human Eg5 A133D mutant expressed in Escherichia coli BL21 by pyruvate kinase/lactate dehydrogenase-linked assay relative to control
T2 sequence (whole entry): T1 sequence (whole entry) with V130D

[3] = biological target: T3, Kinesin-like protein KIF11 (Homo sapiens) (UniProt P52732); test: Inhibition of microtubule-stimulated ATPase activity of N-terminal His-6-tagged human wild type Eg5 (1 to 368) expressed in Escherichia coli BL21 by pyruvate kinase/lactate dehydrogenase-linked assay relative to control
T3 sequence (whole entry): T1 sequence (whole entry) with V130D, D133A

[4] = tested on: T4, Kinesin-like protein KIF11 (Homo sapiens), P52732 [D130V]; test: Inhibition of microtubule-stimulated ATPase activity of human Eg5 D130V mutant expressed in Escherichia coli BL21 by pyruvate kinase/lactate dehydrogenase-linked assay relative to control
T4 sequence (whole entry): T1 sequence (whole entry) with D133A

ICmax [1]: 10%
ICmax [2]: 50%
ICmax [3]: 95%
ICmax [4]: 50%
Structure (SMILES): Cc1ccc(C(=O)N(CCCN)[C@@H](c2oc3cc(Cl)ccc3c(=O)c2Cc2ccccc2)C(C)C)cc1
